{"source": "ChEMBL document CHEMBL4414594", "about": "“Hepatoprotective Tetrahydrobenzocyclooctabenzofuranone Lignans from Kadsura longipedunculata” (2019)", "note": "Calls of active or inactive are those of the source. The rule behind the calls is not given here.", "data": [{"system": "HepG2", "test": "Hepatoprotective activity against APAP-induced cytotoxicity in human HepG2 cells assessed as cell survival rate at 10 uM incubated for 48 hrs by MTT assay relative to control", "assay_type": "functional", "values": [{"smiles": "COC1=C(OC)C(=O)[C@]23COc4c5c(cc(c42)[C@H](OC(=O)/C=C/c2ccccc2)[C@H](C)[C@@](C)(O)CC3=C1)OCO5", "Activity": "37%"}, {"smiles": "COC1=C(OC)C(=O)[C@]23COc4c5c(cc(c42)[C@H](OC(=O)/C=C/c2ccccc2)[C@H](C)[C@](C)(O)CC3=C1)OCO5", "Activity": "50.8%"}, {"smiles": "COc1c(O)cc2c(c1OC)-c1c(cc(O)c(OC)c1OC)[C@H](OC(=O)c1ccccc1)[C@H](C)[C@H](C)C2", "Activity": "inactive"}, {"smiles": "COC(=O)c1cc(OC)c2c(c1-c1c(CO)cc(OC)c3c1OCO3)OCO2", "note": "[BICYCLOL]", "Activity": "49%"}, {"smiles": "COc1c(O[C@@H]2O[C@H](CO)[C@@H](O)[C@H](O)[C@H]2O)cc2c(c1O)-c1c(cc3c(c1OC)OCO3)[C@H](O)[C@H](C)[C@H](C)C2", "Activity": "inactive"}]}, {"system": "Peritoneal macrophage", "test": "Antiinflammatory activity in C57BL/6J mouse peritoneal macrophages assessed as inhibition of LPS-induced nitric oxide production at 10 uM incubated for 24 hrs in presence of LPS by Griess test relative to control", "assay_type": "functional", "units": {"inhibition at 10 µM": "%"}, "values": [{"smiles": "C/C=C(/C)C(=O)O[C@H]1c2cc(O)c(O[C@@H]3O[C@H](CO)[C@@H](O)[C@H](O)[C@H]3O)c3c2[C@@]2(CO3)C(=O)C(OC)=C(OC)C=C2C[C@@H](C)[C@H]1C", "inhibition at 10 µM": 55.1}, {"smiles": "C/C=C/c1ccc(O[C@H](C)[C@@H](O)c2cc(O)c(OC)c(OC)c2)c(OC)c1", "inhibition at 10 µM": 89.8}, {"smiles": "COC1=C(OC)C(=O)[C@]23COc4c5c(cc(c42)[C@H](OC(=O)/C=C/c2ccccc2)[C@H](C)[C@](C)(O)CC3=C1)OCO5", "inhibition at 10 µM": 74.9}]}]}
